Experimental findings from publication PMC3723632, “A Multi-targeted Drug Candidate with Dual Anti-HIV and Anti-HSV Activity” (PLoS Pathogens, 2013) are described below.

One series relates to PBMC. As to the kind of experiment: Chemokine mRNA expression (RT-PCR) in PBMC. Type of series: cell-based, human. The note with it: 100 µg/ml, 4 h. As to the method:
Figure 9 Expression of CC-chemokines, CCR5 and chemokine mRNA expression in PBMC cultures after drug treatment. Panel A: Production of CC-chemokines by PBMC and the effects of adefovir, tenofovir, and PMEO-DAPym on the expression of the CCR5 receptor. Freshly isolated PBMCs from four healthy donors were incubated for 24 h with medium only (NC) or with adefovir, tenofovir, or PMEO-DAPym. We collected the supernatants and measured the concentrations of MIP-1α (▪), MIP-1β (▴), and RANTES (•) using a Bioplex system (Bio-Rad, Hercules, CA). Shown are means ± SEM. The cells were also collected, and the expression of the CCR5 receptor (□) was measured with flow cytometry using the PE-labeled CCR5 (clone 2D7) mAb; it is shown as percentage of control (± SEM) from four independent representative experiments. Panel B: Chemokine mRNA expression upon PMEO-DAPym exposure to PBMC. RT-PCR analysis of MIP-1α, MIP-1β, RANTES, and GAPDH (control) expression in PBMC treated with 100-µg/ml PMEO-DAPym for 4 h. Similar results were obtained with PBMC from three different donors. Results from one representative donor are shown.
We isolated total RNA from approximately 10^6 PBMC using the RNeasy Mini Kit (QIAGEN, Hilden, Germany). To eliminate potential genomic DNA contamination, the samples were treated with DNase I (Roche). […]

Another series relates to M/M cultures. Kind of series: Viability of M/M cultures. In kind it is cell-based, human. The note with it: 100 µg/ml. As to the method:
Monocyte/macrophage (M/M) lineage cells can be infected by HSV-2 and HIV-1. M/M reside in genital herpes lesions and are thought to be reservoirs of HIV [6], [23]. […] Lower concentrations were dose-dependently inhibitory, with EC50 values ranging between 0.02 and 0.2 µg/ml (Table 1, Table 3).

The next series deals with CXCR4 or CXCR3. As to the kind of experiment: Flow cytometry of CXCR4 and CXCR3 expression on PBMC. In kind it is cell-based, human. To be noted: data not shown. The method, then:
PBMC were cultured in the presence of adefovir, tenofovir, and PMEO-DAPym and incubated at 37°C in a humidified, 5% CO2-controlled atmosphere. The expression of cellular activation markers was measured after 3 days of culture. Briefly, after washing the cells with PBS containing 2% FCS, we incubated them with PerCP-conjugated anti-CD4 mAb (clone SK3) in combination with PE-conjugated anti-CD25, anti-CD69, or anti-HLA-DR mAbs for 30 min at room temperature. For aspecific background staining, cells were stained in parallel with Simultest Control IgG γ1/γ2a and PerCP-conjugated mouse IgG1. Finally, the cells were washed with PBS, fixed with 1% formaldehyde solution, and analyzed with a FACSCalibur (BD Biosciences, San Jose, CA); data were acquired with CellQuest software and further analyzed with the FLOWJO software (Tree Star, San Carlos, CA). The expression of the chemokine receptors was measured after 24 h, and PBMC were incubated with PerCP-conjugated anti-CD4 mAb (clone SK3) in combination with APC-conjugated anti-CXCR4 mAb (clone 12G5) and PE-conjugated anti-CCR5 (clone 2D7) or anti-CXCR3 (clone 1C6). To evaluate the biological effects of the β-chemokines produced by drug-treated PBMC, freshly isolated PBMC were incubated for 1 h at 37°C with supernatants collected from PBMC cultures treated with compounds for 24 h. […]

A further series concerns HSV-1 (RV-174). As to the kind of experiment: Virus yield reduction assay in HEL cells, HSV-1 clinical isolate. The note with it: for EC90: Human alphaherpesvirus 1, HEL.
Series [1] concerns organotypic epithelial raft cultures of the PHKs. Kind of series: Histological examination of cell differentiation in raft cultures. To be noted: highest tested concentration 50 µg/ml.
Method: Primary human keratinocytes (PHKs) were seeded on top of collagen gels in 24-well microtiter plates and maintained submerged for 24–48 h. The collagen rafts were then raised and placed into stainless-steel grids at the interface between air and the liquid culture medium. The epithelial cells were allowed to stratify. Rafts were infected with 5,000 PFU of HSV-1KOS or HSV-2G at 10 days post lifting and treated with adefovir or PMEO-DAPym. Five days later, one series of rafts was fixed in 10% buffered formalin, embedded in paraffin, and stained with hematoxylin and eosin for histological evaluation.
The next series relates to HSV-1 and HSV-2. Kind of series: Organotypic epithelial raft cultures of PHKs, virus production. In kind it is cell-based. To be noted: HSV-1 and HSV-2, 20 µg/ml. The method, then:
Figure 3 Inhibitory activities of tenofovir, adefovir, and PMEO-DAPym against laboratory HSV-1 and HSV-2 strains in organotypic epithelial raft cultures. Panels A (HSV-1) and B (HSV-2): Drugs at different concentrations were added to the raft cell cultures on the day of infection (10 days after initiation of differentiation). The drugs remained in the presence of the cells for 5 days until the rafts were frozen for determination of virus production with a plaque assay in HEL cell cultures. Error bars represent S.D.
The epithelial cells were allowed to stratify. […] Virus production per raft was then calculated.

SMILES strings stand for the structures. Values after ≈ are worked out from the molar mass of the structure shown.

Method for HSV-1 (RV-174): These assays were carried out in HEL cell monolayers at different times post infection. […] After 2 h at 37°C, the cells were washed and medium containing different concentrations of PMEO-DAPym (in duplicate) was added. Following 24, 48, and 72 h of incubation, we released the viruses by freeze-thawing and then titrated them using a plaque assay in HEL cells.

For `Nc1cc(OCCOCP(=O)(O)O)nc(N)n1` [PMEO-DAPym, 6-phosphonylmethoxyethoxy-2,4-diaminopyrimidine], in the series on PBMC, the “increase in MIP-1β and MIP-1α mRNA expression” value is recorded as more than 9 fold. For the same compound, the “effect on the viability of M/M cultures” value in the series on M/M cultures was “No effect on the viability”. Further, in the series with CXCR4 or CXCR3, the “downregulation of CXCR4 or CXCR3” value is listed as “No downregulation”. Moreover, the EC90 in the series on HSV-1 (RV-174) (24 h, RV-174, moi = 5x10^-3, 24 hours) is less than 1 mg/L; with HSV-1 (RV-174) (24 h, RV-174, moi = 5x10^-4, 24 hours) it was 2.27 mg/L (≈ 8.59 µM); in the series on HSV-1 (RV-174) (48 h, RV-174, moi = 5x10^-3, 48 hours), 1 mg/L (≈ 3.79 µM); with HSV-1 (RV-174) (48 h, RV-174, moi = 5x10^-4, 48 hours), less than 1 mg/L; in the series on HSV-1 (RV-174) (72 h, RV-174, moi = 5x10^-3, 72 hours), 1 mg/L (≈ 3.79 µM); in the series on HSV-1 (RV-174) (72 h, RV-174, moi = 5x10^-4, 72 hours) it was less than 1 mg/L. For the same compound, the EC99 in the series with HSV-1 (RV-174) (RV-174, moi = 5x10^-3, 24 hours) was 3.81 µg/mL; in the series with HSV-1 (RV-174) (RV-174, moi = 5x10^-3, 48 hours) it was 4.96 µg/mL; with HSV-1 (RV-174) (RV-174, moi = 5x10^-3, 72 hours), 3.92 µg/mL; with HSV-1 (RV-174) (RV-174, moi = 5x10^-4, 24 hours), 6.26 µg/mL; with HSV-1 (RV-174) (RV-174, moi = 5x10^-4, 48 hours), 2.74 µg/mL; with HSV-1 (RV-174) (RV-174, moi = 5x10^-4, 72 hours) it was 3.59 µg/mL. In series [1], the “effect on cell differentiation (histological examination)” value is on record as “no effect on cell differentiation”.

On to `C[C@H](Cn1cnc2c(N)ncnc21)OCP(=O)(O)O` [Tenofovir, 9-(2-phosphonylmethoxypropyl)adenine], for which the “reduction of herpesvirus replication” value in the series with HSV-1 and HSV-2 is less than 0.5 log10.
